Results: patent US20230373972A1, “PIPERAZINE DERIVATIVE, PREPARATION METHOD THEREFOR AND USE THEREOF” (Zhejiang Hisun Pharmaceutical Co., Ltd., priority 2020, published 2023)

What was measured:
[1] = system: human plasma; assay: In-vitro anticoagulation on human plasma (APTT kit, coagulation time); conditions: concentration of the compound when the coagulation time (APTT) was prolonged twice
Procedure: The following method was used to determine the in-vitro anticoagulation of the compound of the present invention in the human plasma. In the method, an APTT kit of the MediRox company was used to test. The APTT kit was purchased from MediRox (article number MRX930), and the human plasma was prepared internally.
The preparation of the human plasma was briefly described as follows: human plasma was collected in a blood collection tube containing sodium citrate, and centrifuged at 3,000 rpm for 10 minutes at room temperature, and plasma was collected, and packaged separately and stored at −80° C.
An APTT test process was briefly described as follows: a test compound was dissolved in DMSO to prepare a 10 mM storage solution first, then the test compound was diluted with DMSO by a triple gradient, and a final concentration of the test compound in a reaction system ranged from 217 μM to 0.03 μM. 4 μL, of test compounds at different concentrations diluted with DMSO were added to a centrifuge tube containing 180 μL of plasma, and 4 μL of DMSO was added to a blank group, shaken and mixed evenly, and incubated at 37° C. for 5 minutes. Subsequently, an APTT reagent was placed in a reagent holder according to instrument requirements, the incubated plasma sample was placed in a detection position of a coagulation analyzer, and a coagulation time was determined and recorded (s). With a final concentration of the compound as an abscissa and Ratio (Ratio=TiT0, wherein T0 was a coagulation time of a blank control, and Ti was a coagulation time of a compound to be tested) as an ordinate, a coagulation dose-effect curve was drawn by Graph Pad Prisms, and a concentration of the compound when the coagulation time was prolonged twice was calculated, which was namely a CT2 value, as shown in Table 2.

[2] = biological target: T1, Native human Factor XIa protease (Homo sapiens, UniProt P03951); assay: Inhibition of activity of Factor XIa protease (chromogenic substrate S-2366); assay type: biochemical; conditions: S-2366 1 mM, 37° C. 10 minutes, absorption at 405 nm
T1 construct: The Native human Factor XIa protease was purchased from Abcam; purchased Abcam ab62411
T1 sequence (P03951 388-625 limits assumed): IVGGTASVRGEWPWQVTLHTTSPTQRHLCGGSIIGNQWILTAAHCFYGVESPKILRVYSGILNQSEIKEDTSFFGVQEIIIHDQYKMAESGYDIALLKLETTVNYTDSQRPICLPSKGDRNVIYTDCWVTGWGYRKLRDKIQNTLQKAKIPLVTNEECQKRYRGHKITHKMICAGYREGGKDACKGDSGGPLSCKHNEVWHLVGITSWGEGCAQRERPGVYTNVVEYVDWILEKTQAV
T1 sequence (P03951 19-387 partner limits assumed): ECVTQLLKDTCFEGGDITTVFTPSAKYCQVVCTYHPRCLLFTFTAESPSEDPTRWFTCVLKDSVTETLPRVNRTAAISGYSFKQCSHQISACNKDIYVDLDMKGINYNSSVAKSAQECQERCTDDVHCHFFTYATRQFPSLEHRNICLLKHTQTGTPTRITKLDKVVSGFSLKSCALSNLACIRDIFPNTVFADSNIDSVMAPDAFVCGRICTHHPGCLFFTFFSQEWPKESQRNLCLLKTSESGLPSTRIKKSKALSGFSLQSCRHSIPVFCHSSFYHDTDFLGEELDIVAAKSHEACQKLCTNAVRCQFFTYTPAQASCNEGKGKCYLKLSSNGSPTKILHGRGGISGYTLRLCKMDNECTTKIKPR
Description: The following method was used to determine an inhibition degree of the compound of the present invention on an activity of Native human Factor XIa protease in vitro. In the method, a Factor XIa chromogenic substrate was used to test the inhibition degree on the activity of the Factor XIa protease. The Native human Factor XIa protease was purchased from Abcam (article number ab62411), and S-2366 was purchased from Chromogenix (article number 82109039). An experimental process was briefly described as follows: a test compound was dissolved in DMSO to prepare a 10 mM storage solution first, then the compound was diluted with a Factor XIa reaction buffer (100 mM Tris-HCl, 200 mM NaCl, 0.02% Tween 20, pH 7.4) by a quadruple gradient, and a final concentration of the test compound in a reaction system ranged from 10,000 nM to […]. The reaction was carried out in a 384-well microplate. 2 μL of the test compounds at different concentrations diluted with the reaction buffer were added to wells first, and 2 μL of 1% DMSO (a final concentration of DMSO in the reaction system was 0.1%) was used to replace blank and control wells. Subsequently, 8 μL of enzyme working solution (a final concentration of Factor XIa was […]) was added to each well, and 8 μL of Factor XIa reaction buffer was used to replace the blank well, centrifuged for 30 seconds, and incubated on ice for 5 minutes. Finally, 10 μL of substrate working solution (a final concentration of S-2366 was 1 mM) was added to each well, and centrifuged for 30 seconds, and the reaction was started. The solution was incubated at 37° C. for 10 minutes to determine a light absorption value at 405 nm. By comparing with a light absorption value of the control group (0.1% DMSO), a percentage inhibition rate of the compound at each concentration was calculated, and nonlinear regression analysis was carried out on value-inhibition rate with the concentration of the compound by GraphPad Prism 5 software, so as to obtain an IC50 value of the compound, as shown in Table 1.

| Compound | IC50 [2] | CT2 [1] |
| --- | --- | --- |
| O=C1NCc2cc(NC(=O)C(Cc3ccccc3)N3CC(=O)N(c4cc(Cl)ccc4-n4cnnn4)CC3=O)ccc21 (stereo not drawn) [Example 7, 2-(4-(5-Chloro-2-(1H-tetrazol-1-yl)phenyl)-2,5-dioxopiperazine-1-yl)-N-(1-oxoisoindolin-5-yl)-3-phenylpropanamide] | 15.5 nM | 9.8 µM |
| COC(=O)Nc1ccc(NC(=O)C(Cc2ccccc2)N2CC(=O)N(c3cc(Cl)ccc3-n3cnnn3)CC2=O)cc1 (stereo not drawn) [Example 2, Methyl (4-(2-(4-(5-chloro-2-(1H-tetrazol-1-yl)phenyl)-2,5-dioxopiperazin-1-yl)-3-phenylpropanamido)phenyl)carbamate] | 44.9 nM | 12.6 µM |
| Cn1cc2ccc(NC(=O)C(Cc3ccccc3)N3CC(=O)N(c4cc(Cl)ccc4-n4cnnn4)CC3=O)cc2n1 (stereo not drawn) [Example 31, 2-(4-(5-Chloro-2-(1H-tetrazol-1-yl)phenyl)-2,5-dioxopiperazin-1-yl)-N-(2-methyl-2H-indazol-6-yl)-3-phenylpropanamide] | 38.9 nM | 13.7 µM |
| O=C(Nc1ccc2nccnc2c1)C(Cc1ccccc1)N1CC(=O)N(c2cc(Cl)ccc2-n2cnnn2)CC1=O (stereo not drawn) [Example 18, 2-(4-(5-Chloro-2-(1H-tetrazol-1-yl)phenyl)-2,5-dioxopiperazin-1-yl)-3-phenyl-N-(quinoxalin-6-yl)propanamide] | 20.5 nM | 7.9 µM |
| CN1Cc2cc(NC(=O)C(Cc3ccccc3)N3CC(=O)N(c4cc(Cl)ccc4-n4cnnn4)CC3=O)ccc2C1=O (stereo not drawn) [Example 12, 2-(4-(5-Chloro-2-(1H-tetrazol-1-yl)phenyl)-2,5-dioxopiperazin-1-yl)-N-(2-methyl-1-oxoisoindolin-5-yl)-3-phenylpropanamide] | 22.8 nM | 4.4 µM |
| O=C(O)c1ccc(NC(=O)C(Cc2ccccc2)N2CC(=O)N(c3cc(Cl)ccc3-n3ccnn3)CC2=O)cc1 (stereo not drawn) [Example 11, 4-(2-(4-(5-Chloro-2-(1H-1,2,3-triazole-1-yl)phenyl)-2,5-dioxopiperazin-1-yl)-3-phenylpropanamido)benzoic Acid] | 24.9 nM | 8.1 µM |
| Cn1cc2cc(NC(=O)C(Cc3ccc(C#N)cc3)N3CC(=O)N(c4cc(Cl)ccc4-n4cc(Cl)nn4)CC3=O)ccc2n1 (stereo not drawn) [Example 115, 2-(4-(5-chloro-2-(4-chloro-1H-1,2,3-triazol-1-yl)phenyl)-2,5-dioxopiperazin-1-yl)-3-(4-cyanophenyl)-N-(2-methyl-2H-indazol-5-yl)propanamide] | 46.7 nM | 11.7 µM |
| NC(=O)c1ccc(NC(=O)C(Cc2ccccc2)N2CC(=O)N(c3cc(Cl)ccc3-n3cnnn3)CC2=O)cc1F (stereo not drawn) [Example 35, 4-(2-(4-(5-Chloro-2-(1H-tetrazol-1-yl)phenyl)-2,5-dioxopiperazin-1-yl)-3-phenylpropanamido)-2-fluorobenzamide] | 32 nM | 5.8 µM |
| Cn1ccc(C[C@@H](C(=O)Nc2ccc3nn(C)cc3c2)N2CC(=O)N(c3cc(Cl)ccc3-n3cc(Cl)nn3)CC2=O)n1 [Example 112, (S)-2-(4-(5-chloro-2-(4-chloro-1H-1,2,3-triazole-1-yl)phenyl)-2,5-dioxopiperazin-1-yl)-3-(1-methyl-1H-pyrazole-3-yl)-N-(2-methyl-2H-indazol-5-yl)propionamide] | 25.6 nM | 5.6 µM |
| O=C(Nc1ccc2nn(C(F)F)cc2c1)C(Cc1ccccc1)N1CC(=O)N(c2cc(Cl)ccc2-n2cnnn2)CC1=O (stereo not drawn) [Example 34, 2-(4-(5-Chloro-2-(1H-tetrazol-1-yl)phenyl)-2,5-dioxopiperazin-1-yl)-N-(2-(difluoromethyl)-2H-indazol-5-yl)-3-phenylpropanamide] | 10.4 nM | 5.9 µM |
| O=C(O)c1ccc(NC(=O)C(Cc2ccccc2)N2CC(=O)N(c3cc(Cl)ccc3-n3cnnn3)CC2=O)cc1 (stereo not drawn) [Example 52, 4-(2-(4-(5-chloro-2-(1H-tetrazol-1-yl)phenyl)-2,5-dioxopiperazin-1-yl)-3-phenylpropanamido)benzoic Acid] | 17.6 nM | 2.0 µM |
| [2H]C([2H])([2H])n1cc2cc(NC(=O)C(Cc3ccccc3)N3CC(=O)N(c4cc(Cl)ccc4-n4cc(Cl)nn4)CC3=O)ccc2n1 (stereo not drawn) [Example 109, 2-(4-(5-Chloro-2-(4-chloro-1H-1,2,3-triazol-1-yl)phenyl)-2,5-dioxopiperazin-1-yl)-N-(2-(methyl-d3)-2H-indazol-5-yl)-3-phenylpropanamide] | 12.7 nM | 12.6 µM |
| CNC(=O)c1ccc(NC(=O)C(Cc2ccccc2)N2CC(=O)N(c3cc(Cl)ccc3-n3cnnn3)CC2=O)cc1 (stereo not drawn) [Example 6, 4-(2-(4-(5-Chloro-2-(1H-tetrazol-1-yl)phenyl)-2,5-dioxopiperazin-1-yl)-3-phenylpropanamido)-N-methylbenzamide] | 34.6 nM | 4.9 µM |

Further compounds by falling IC50 [2], results first:

| IC50 [2] | Compound | CT2 [1] |
| --- | --- | --- |
| 38.5 nM | Cn1cc2cc(NC(=O)C(Cc3ccc(F)cc3)N3CC(=O)N(c4cc(Cl)ccc4-n4cnnn4)CC3=O)ccc2n1 (stereo not drawn) [Example 41, 2-(4-(5-Chloro-2-(1H-tetrazol-1-yl)phenyl)-2,5-dioxopiperazin-1-yl)-3-(4-fluorophenyl)-N-(2-methyl-2H-indazol-5-yl)propanamide] | 8.5 µM |
| 35.8 nM | COc1ccc(CC(C(=O)Nc2ccc3nn(C)cc3c2)N2CC(=O)N(c3cc(Cl)ccc3-n3cc(Cl)nn3)CC2=O)cc1 (stereo not drawn) [Example 108, 2-(4-(5-chloro-2-(4-chloro-1H-1,2,3-triazol-1-yl)phenyl)-2,5-dioxopiperazin-1-yl)-3-(4-methoxyphenyl)-N-(2-methyl-2H-indazol-5-yl)propanamide] | 10.6 µM |
| 34.8 nM | CC(=O)c1ccc(NC(=O)C(Cc2ccccc2)N2CC(=O)N(c3cc(Cl)ccc3-n3cnnn3)CC2=O)cc1 (stereo not drawn) [Example 17] | 11.2 µM |
| 32.7 nM | Cn1cc2cc(NC(=O)C(Cc3ccccc3)N3CC(=O)N(c4cc(Cl)ccc4-n4cc(C(F)(F)F)nn4)CC3=O)ccc2n1 (stereo not drawn) [Example 121, 2-(4-(5-Chloro-2-(4-(trifluoromethyl)-1H-1,2,3-triazol-1-yl)phenyl)-2,5-dioxopiperazin-1-yl)-N-(2-methyl-2H-indazol-5-yl)-3-phenylpropanamide] | 16.1 µM |
| 29.9 nM | COC(=O)c1ccc(NC(=O)C(Cc2ccccc2)N2CC(=O)N(c3cc(Cl)ccc3-n3cnnn3)CC2=O)cc1 (stereo not drawn) [Example 5, Methyl 4-(2-(4-(5-Chloro-2-(1H-tetrazol-1-yl)phenyl)-2,5-dioxopiperazin-1-yl)-3-phenylpropanamido)benzoate] | 17.8 µM |
| 21.2 nM | O=C(Nc1ccc2nn(C(F)F)cc2c1)[C@H](Cc1ccccc1)N1CC(=O)N(c2cc(Cl)ccc2-n2cc(Cl)nn2)CC1=O [Example 97, (S)-2-(4-(5-chloro-2-(4-chloro-1H-1,2,3-triazol-1-yl)phenyl)-2,5-dioxopiperazin-1-yl)-N-(2-(difluoromethyl)-2H-indazol-5-yl)-3-phenylpropanamide] | 12.5 µM |
| 14.9 nM | O=C1Cc2cc(NC(=O)C(Cc3ccccc3)N3CC(=O)N(c4cc(Cl)ccc4-n4cnnn4)CC3=O)ccc2N1 (stereo not drawn) [Example 13, 2-(4-(5-Chloro-2-(1H-tetrazol-1-yl)phenyl)-2,5-dioxopiperazin-1-yl)-N-(2-oxoindolin-5-yl)-3-phenylpropanamide] | 4.0 µM |
| 7.8 nM | O=C(O)c1cccc(NC(=O)C(Cc2ccccc2)N2CC(=O)N(c3cc(Cl)ccc3-n3cnnn3)CC2=O)c1 (stereo not drawn) [Example 9, 3-(2-(4-(5-Chloro-2-(1H-tetrazol-1-yl)phenyl)-2,5-dioxopiperazin-1-yl)-3-phenylpropanamido)benzoic Acid] | 2.9 µM |
